# Results from patent US20230398101A1, “Co-agents as Therapy Against Anaerobic Pathogens” (priority 2022, published 2023).
# Read-outs that look alike come from different tables or passages of the source.
# What was measured:
# Assay type in all cases: cell-based
# Bifidobacterium animalis = experiment: Anaerobic agar-dilution AST (MIC, checkerboard FIC)
# [1] = system: Peptostreptococcus anaerobius; experiment: as above; settings: Peptostreptococcus anaerobious 807256
# Cutibacterium acnes = experiment: as above
# Bacteroides fragilis = experiment: as above; settings: for MIC vs clinical breakpoint (susceptibility): anaerobic (Table 17)
# Bacteroides ovatus = experiment: as above
# Phocaeicola vulgatus = experiment: as above; settings: for MIC vs clinical breakpoint (susceptibility): anaerobic (Table 17)
# Porphyromonas gingivalis = experiment: as above; settings: ATCC33277
# Staphylococcus aureus = experiment: Aerobic agar-dilution AST of facultative anaerobes (MIC, checkerboard FIC); settings: Staphylococcus aureus, read-out: MIC
# Escherichia coli = experiment: as above
# Pseudomonas aeruginosa = experiment: as above
# Acinetobacter baumannii = experiment: as above
# Lactobacillus gasseri = experiment: AST (MIC) of beneficial or mutualistic facultative anaerobic bacteria
# Lactobacillus paracasei = experiment: as above; settings: Lacticaseibacillus paracasei
# [2] = system: Leuconostoc mesenteroides; experiment: as above
# Pediococcus acidilactici = experiment: as above
# Pediococcus pentosaceus = experiment: as above
# [3] = system: facultative anaerobic pathogens; experiment: microbe, parasite or virus in culture
structure (smiles),measurement,setting,value
"C[C@@H]1O[C@@H]1P(=O)(O)O [F, fosfomycin sodium]",MIC,Bifidobacterium animalis; Bifidobacterium animalis,128 µg/mL
same,MIC vs clinical breakpoint (susceptibility),"Bifidobacterium animalis; Bifidobacterium animalis JLP-002, anaerobic (Table 17)",−
same,MIC,"Bifidobacterium animalis; Bifidobacterium animalis TBC0002, anaerobic",32 µg/mL
same,MIC,"Bifidobacterium animalis; Bifidobacterium animalis, Bifidobacterium animalis TBC0002, anaerobic, read-out: MIC",64 µg/mL
same,susceptibility,"Bifidobacterium animalis; Bifidobacterium, anaerobic",no susceptibility
same,MIC,"Bifidobacterium animalis; strain TBC0002, anaerobic",128 µg/mL
same,MIC vs clinical breakpoint (susceptibility),[1]; anaerobic (Table 17),+
same,MIC,"[1]; Peptostreptococcus anaerobius, anaerobic",16 µg/mL
same,MIC,Cutibacterium acnes; Cutibacterium acnes,128 µg/mL
same,MIC vs clinical breakpoint (susceptibility),"Cutibacterium acnes; Cutibacterium acnes 6609, anaerobic (Table 17)",+
same,MIC,"Cutibacterium acnes; Cutibacterium acnes, Cutibacterium acnes 6609, anaerobic, read-out: MIC",64 µg/mL
same,MIC,"Cutibacterium acnes; Cutibacterium acnes, strain 6609, anaerobic, read-out: MIC",32 µg/mL
same,MIC,"Cutibacterium acnes; strain 6609, anaerobic",64 µg/mL
same,MIC,"Bacteroides fragilis; ATCC25285, Bacteroides fragilis ATCC 25285, anaerobic, read-out: MIC",64 µg/mL
same,MIC vs clinical breakpoint (susceptibility),Bacteroides fragilis; Bacteroides fragilis 638R,−
same,MIC vs clinical breakpoint (susceptibility),Bacteroides fragilis; Bacteroides fragilis ATCC 23745,−
same,MIC vs clinical breakpoint (susceptibility),Bacteroides fragilis; Bacteroides fragilis ATCC 25285,−
same,MIC vs clinical breakpoint (susceptibility),Bacteroides fragilis; Bacteroides fragilis CLA267,−
same,MIC vs clinical breakpoint (susceptibility),Bacteroides fragilis; Bacteroides fragilis O16M,−
same,MIC,"Bacteroides fragilis; Bacteroides fragilis, ATCC23745, Bacteroides fragilis ATCC 23745, anaerobic",> 128 µg/mL
same,MIC,"Bacteroides fragilis; Bacteroides fragilis, ATCC23745, strain ATCC 23745, anaerobic",> 128 µg/mL
same,MIC,"Bacteroides fragilis; Bacteroides fragilis, ATCC25285, Bacteroides fragilis ATCC 25285, anaerobic",> 128 µg/mL
same,MIC,"Bacteroides fragilis; Bacteroides fragilis, ATCC25285, strain ATCC 25285, anaerobic",> 128 µg/mL
same,MIC,"Bacteroides fragilis; Bacteroides fragilis, Bacteroides fragilis 016M, anaerobic",> 128 µg/mL
same,MIC,"Bacteroides fragilis; Bacteroides fragilis, Bacteroides fragilis 638R, anaerobic",> 128 µg/mL
same,MIC,"Bacteroides fragilis; Bacteroides fragilis, Bacteroides fragilis CLA 267, anaerobic",> 128 µg/mL
same,MIC,"Bacteroides fragilis; Bacteroides fragilis, strain 638R, anaerobic",> 128 µg/mL
same,MIC,"Bacteroides fragilis; Bacteroides fragilis, strain CLA267, anaerobic",> 128 µg/mL
same,MIC,"Bacteroides fragilis; Bacteroides fragilis, strain O16M (016M), anaerobic",> 128 µg/mL
same,MIC,"Bacteroides fragilis; strain ATCC 25285, anaerobic",128 µg/mL
same,MIC,"Bacteroides fragilis; strain CLA267, anaerobic",128 µg/mL
same,MIC,"Bacteroides ovatus; Bacteroides ovatus ATCC 8483, anaerobic",>128 µg/mL
same,MIC vs clinical breakpoint (susceptibility),"Bacteroides ovatus; Bacteroides ovatus ATCC 8483, anaerobic (Table 17)",−
same,MIC,"Bacteroides ovatus; Bacteroides ovatus, ATCC8483",> 128 µg/mL
same,MIC vs clinical breakpoint (susceptibility),Phocaeicola vulgatus; Phocaeicola vulgatus ATCC 8482,−
same,MIC vs clinical breakpoint (susceptibility),Phocaeicola vulgatus; Phocaeicola vulgatus ATCC 29327,−
same,MIC,"Phocaeicola vulgatus; Phocaeicola vulgatus, ATCC8482, strain ATCC 8482, anaerobic",> 128 µg/mL
same,MIC,"Phocaeicola vulgatus; Phocaeicola vulgatus, ATCC29327, Phacoeicola vulgatus ATCC 29327, anaerobic",128 µg/mL
same,MIC,"Phocaeicola vulgatus; Phocaeicola vulgatus, ATCC29327, strain ATCC 29327, anaerobic",> 128 µg/mL
same,MIC,"Phocaeicola vulgatus; Phocaeicola vulgatus, ATCC29327, strain ATCC 29327, anaerobic, read-out: MIC",64 µg/mL
same,MIC,"Phocaeicola vulgatus; Phocaeicola vulgatus, Phacoeicola vulgatus TCC 8482, anaerobic",> 128 µg/mL
same,MIC,"Phocaeicola vulgatus; strain ATCC 8482, anaerobic",128 µg/mL
same,MIC,Porphyromonas gingivalis,> 128 µg/mL
same,MIC,"Staphylococcus aureus; ATCC33591, Staphylococcus aureus ATCC 33591 (Table 15)",4 µg/mL
same,MIC,Staphylococcus aureus; Staphylococcus aureus 829025,8 µg/mL
same,MIC,Staphylococcus aureus; Staphylococcus aureus 894946,8 µg/mL
same,MIC,Staphylococcus aureus; Staphylococcus aureus 920576,8 µg/mL
same,MIC,Staphylococcus aureus; Staphylococcus aureus 920962,8 µg/mL
same,MIC,Staphylococcus aureus; Staphylococcus aureus 927596,8 µg/mL
same,MIC,Staphylococcus aureus; Staphylococcus aureus 952566 (Table 15),> 16 µg/mL
same,MIC,Staphylococcus aureus; Staphylococcus aureus 952566 (Tables 14A/14B),8 µg/mL
same,MIC,Staphylococcus aureus; Staphylococcus aureus 953041 (Table 15),4 µg/mL
same,MIC,Staphylococcus aureus; Staphylococcus aureus 956270,8 µg/mL
same,MIC,Staphylococcus aureus; Staphylococcus aureus 956362,8 µg/mL
same,MIC,Staphylococcus aureus; Staphylococcus aureus 981550 (Table 15),16 µg/mL
same,MIC,Staphylococcus aureus; Staphylococcus aureus 981550 (Tables 14A/14B),8 µg/mL
same,MIC,Staphylococcus aureus; Staphylococcus aureus 994946,2 µg/mL
same,MIC,Staphylococcus aureus; Staphylococcus aureus 1022425,16 µg/mL
same,MIC,Staphylococcus aureus; Staphylococcus aureus 1045190,8 µg/mL
same,MIC,"Staphylococcus aureus; strain (MR) 829025, aerobic",4 µg/mL
same,MIC,"Staphylococcus aureus; strain (MR) 884649, aerobic",8 µg/mL
same,MIC,"Staphylococcus aureus; strain (MR) 903887, aerobic",8 µg/mL
same,MIC,"Staphylococcus aureus; strain (MR) 918019, aerobic",4 µg/mL
same,MIC,"Staphylococcus aureus; strain (MR) 920516, aerobic",4 µg/mL
same,MIC,"Staphylococcus aureus; strain (MR) 927596, aerobic",8 µg/mL
same,MIC,"Staphylococcus aureus; strain (MR) 956270, aerobic",4 µg/mL
same,MIC,"Staphylococcus aureus; strain (MR) 956362, aerobic",8 µg/mL
same,MIC,"Staphylococcus aureus; strain (MR) 967287, aerobic",8 µg/mL
same,MIC,"Staphylococcus aureus; strain (MR) 974980, aerobic",8 µg/mL
same,MIC,"Staphylococcus aureus; strain (MR) 979234, aerobic",8 µg/mL
same,MIC,"Staphylococcus aureus; strain (MR) 981550, aerobic",4 µg/mL
same,MIC,"Staphylococcus aureus; strain (MR) 1022425, aerobic",8 µg/mL
same,MIC,"Staphylococcus aureus; strain (MR) 1045190, aerobic",4 µg/mL
same,MIC,"Escherichia coli; ATCC25922, Escherichia coli ATCC 25922 (Table 15)",1 µg/mL
same,MIC,"Escherichia coli; ATCC25922, strain ATCC 25922, aerobic",2 µg/mL
same,MIC,Escherichia coli; Escherichia coli 846446,1 µg/mL
same,MIC,Escherichia coli; Escherichia coli 854535,4 µg/mL
same,MIC,Escherichia coli; Escherichia coli 976657,16 µg/mL
same,MIC,"Escherichia coli; pH 5, Escherichia coli 857021, pH 5",2000 µg/mL
same,MIC,"Escherichia coli; pH 7, Escherichia coli 857021, pH 7",32000 µg/mL
same,MIC,"Escherichia coli; pH 7, Escherichia coli CDC-0089, pH 7",2000 µg/mL
same,MIC,"Escherichia coli; pH 8, Escherichia coli 25922, pH 8",8000 µg/mL
same,MIC,"Escherichia coli; pH 8, Escherichia coli 857021, pH 8",4000 µg/mL
same,MIC,"Escherichia coli; pH 8, Escherichia coli CDC-0089, pH 8",64000 µg/mL
same,MIC,"Escherichia coli; strain 846446, aerobic",2 µg/mL
same,MIC,"Escherichia coli; strain 846450, aerobic",4 µg/mL
same,MIC,"Escherichia coli; strain 854566, aerobic",16 µg/mL
same,MIC,"Escherichia coli; strain 857021, aerobic",2 µg/mL
same,MIC,"Escherichia coli; strain 863678, aerobic",2 µg/mL
same,MIC,"Escherichia coli; strain 863696, aerobic",8 µg/mL
same,MIC,"Escherichia coli; strain 928017, aerobic",2 µg/mL
same,MIC,"Escherichia coli; strain 959117, aerobic",2 µg/mL
same,MIC,"Escherichia coli; strain 961128, aerobic",2 µg/mL
same,MIC,"Escherichia coli; strain 975811, aerobic",4 µg/mL
same,MIC,"Escherichia coli; strain 976657, aerobic",4 µg/mL
same,MIC,"Escherichia coli; strain 977941, aerobic",4 µg/mL
same,MIC,"Escherichia coli; strain 996332, aerobic",4 µg/mL
same,MIC,Pseudomonas aeruginosa; Pseudomonas aeruginosa,128 µg/mL
same,MIC,Pseudomonas aeruginosa; Pseudomonas aeruginosa 945748,128 µg/mL
same,MIC,"Pseudomonas aeruginosa; Pseudomonas aeruginosa, pH 5, Pseudomonas aeruginosa 27853, pH 5, read-out: MIC",32000 µg/mL
same,MIC,"Pseudomonas aeruginosa; Pseudomonas aeruginosa, pH 5, Pseudomonas aeruginosa 975744, pH 5, read-out: MIC",32000 µg/mL
same,MIC,"Pseudomonas aeruginosa; Pseudomonas aeruginosa, pH 8, Pseudomonas aeruginosa 27853, pH 8, read-out: MIC",64000 µg/mL
same,MIC,"Pseudomonas aeruginosa; Pseudomonas aeruginosa, strain 880238, aerobic, read-out: MIC",8 µg/mL
same,MIC,"Pseudomonas aeruginosa; Pseudomonas aeruginosa, strain 889058, aerobic, read-out: MIC",64 µg/mL
same,MIC,"Pseudomonas aeruginosa; Pseudomonas aeruginosa, strain 906939, aerobic, read-out: MIC",64 µg/mL
same,MIC,Acinetobacter baumannii,> 128 µg/mL
same,MIC,"Acinetobacter baumannii; pH 7, Acinetobacter baumannii 918857, pH 7, read-out: MIC",64000 µg/mL
same,MIC,"Acinetobacter baumannii; strain 843978, aerobic, read-out: MIC",8 µg/mL
same,MIC,"Acinetobacter baumannii; strain 918857, aerobic, read-out: MIC",64 µg/mL
same,MIC,"Acinetobacter baumannii; strain 919656, aerobic, read-out: MIC",8 µg/mL
same,MIC,"Acinetobacter baumannii; strain 919899, aerobic, read-out: MIC",8 µg/mL
same,MIC,"Acinetobacter baumannii; strain 938781, aerobic, read-out: MIC",16 µg/mL
same,MIC,"Acinetobacter baumannii; strain 1049160, aerobic, read-out: MIC",8 µg/mL
same,MIC,Lactobacillus gasseri,> 128 µg/mL
same,MIC,Lactobacillus paracasei,> 128 µg/mL
same,MIC,[2],> 128 µg/mL
same,MIC,Pediococcus acidilactici,> 128 µg/mL
same,MIC,Pediococcus pentosaceus,> 128 µg/mL
same,MIC,"[3]; Bacillus cereus, ATCC14579, pH 7, read-out: MIC",64000 µg/mL
same,MIC,"[3]; Bacillus cereus, ATCC14579, pH 8, read-out: MIC",32000 µg/mL
same,MIC,"[3]; Bacillus cereus, pH 5, read-out: MIC",4000 µg/mL
same,MIC,"[3]; Bacillus subtilis, pH 5, read-out: MIC",64000 µg/mL
same,MIC,"[3]; Yersinia pseudotuberculosis, ATCC6905, pH 7",64000 µg/mL
same,MIC,"[3]; Yersinia pseudotuberculosis, pH 5",2000 µg/mL
